Results: US12018021B2 (UCB Biopharma SRL, priority 2018, dated 2024)

The compounds below were run against IgE-Tb / sFcεRIα-Y131A-AF488 (Homo sapiens, UniProt P01854, N146Q/N252Q) (assay: IgE-Tb / sFcεRIα-Y131A-AF488 FRET assay (protocol for examples 234 to 501)). Conditions: examples 234 to 501: compound with IgE-Tb 30 minutes before sFcεRIα-Y131A-AF488, incubated 18 hours at room temperature; read-out: Y131A FRET IC50 range.
Type: binding
Summary of the method: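 Compounds (10-point 3-fold series, top usually 10 μM, 2% DMSO) preincubated 30 min with 5 nM IgE-Tb, then 25 nM sFcεRIα-Y131A-AF488 added; 18 h at room temperature in the dark. TR-FRET ratio 520/490 nm after 337 nm excitation, background-subtracted; IC50 by four-parameter logistic fit.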

Sequence of IgE-Tb / sFcεRIα-Y131A-AF488 (P01854 whole entry N146Q/N252Q): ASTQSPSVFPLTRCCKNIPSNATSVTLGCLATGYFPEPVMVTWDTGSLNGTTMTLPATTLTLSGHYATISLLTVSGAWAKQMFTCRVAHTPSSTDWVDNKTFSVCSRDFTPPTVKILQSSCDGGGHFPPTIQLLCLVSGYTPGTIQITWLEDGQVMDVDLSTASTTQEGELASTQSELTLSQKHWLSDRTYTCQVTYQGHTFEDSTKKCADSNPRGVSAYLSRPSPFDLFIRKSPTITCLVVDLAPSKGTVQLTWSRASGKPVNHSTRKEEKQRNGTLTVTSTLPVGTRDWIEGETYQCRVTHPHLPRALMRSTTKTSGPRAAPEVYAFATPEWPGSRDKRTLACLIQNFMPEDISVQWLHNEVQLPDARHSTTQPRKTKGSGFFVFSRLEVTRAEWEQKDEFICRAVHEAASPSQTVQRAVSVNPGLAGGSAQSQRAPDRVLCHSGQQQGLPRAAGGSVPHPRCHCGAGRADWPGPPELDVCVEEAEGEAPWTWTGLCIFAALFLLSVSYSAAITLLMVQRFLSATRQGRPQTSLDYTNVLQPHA

Question: `O=C(NCC1CC1)c1c(NC(=O)C2CC2)sc2c1C[C@@H](n1cnnc1Nc1ccnc(Cl)c1)CC2` [Example 431, (5S)-5-[3-[(2-chloro-4-pyridyl)amino]-1,2,4-triazol-4-yl]-2-(cyclopropanecarbonylamino)-N-(cyclopropylmethyl)-4,5,6,7-tetrahydrobenzothiophene-3-carboxamide] was tested. Which IC50 did it give?
Answer: < 1 µM

Question: Which IC50 does the source give for `COc1ccc(Nc2nncn2[C@H]2CCc3sc(NC(=O)C4CC4)c(C(=O)NCC4CC4)c3C2)c(C)n1` [Example 432, (5S)-2-(cyclopropanecarbonylamino)-N-(cyclopropylmethyl)-5-[3-[(6-methoxy-2-methyl-3-pyridyl)amino]-1,2,4-triazol-4-yl]-4,5,6,7-tetrahydrobenzothiophene-3-carboxamide] here?
Answer: < 1 µM

Question: With `O=C(NCC1CC1)c1c(NC(=O)C2CC2)sc2c1C[C@@H](Nc1nc3cccnc3s1)CC2` [Example 433] as the compound, how does the IC50 read?
Answer: < 1 µM

Question: For `Cn1nncc1Nc1nncn1[C@H]1CCc2sc(NC(=O)C3CC3)c(C(=O)NCC3CC3)c2C1` [Example 434, (5S)-2-(cyclopropanecarbonylamino)-N-(cyclopropylmethyl)-5-[3-[(3-methyltriazol-4-yl)amino]-1,2,4-triazol-4-yl]-4,5,6,7-tetrahydrobenzothiophene-3-carboxamide], which IC50 is on record?
Answer: < 1 µM

Question: With `C[C@H]1C[C@@H]1C(=O)Nc1sc2c(c1C(=O)NC[C@@H]1C[C@@H]1F)C[C@@H](n1cnnc1Nc1cc(C(F)F)nn1C)CC2` [Example 435, (5S)-5-[3-[[5-(difluoromethyl)-2-methylpyrazol-3-yl]amino]-1,2,4-triazol-4-yl]-N-[[(1S,2S)-2-fluorocyclopropyl]methyl]-2-[[(1S,2S)-2-methylcyclopropanecarbonyl]amino]-4,5,6,7-tetrahydro-1-benzothiophene-3-carboxamide] as the compound, how does the IC50 read?
Answer: < 1 µM

Question: For `C[C@H]1C[C@@H]1C(=O)Nc1sc2c(c1C(=O)NC[C@H]1C[C@@H]1F)C[C@@H](n1cnnc1Nc1cc(C(F)F)nn1C)CC2` [Example 436, (5S)-5-[3-[[5-(difluoromethyl)-2-methylpyrazol-3-yl]amino]-1,2,4-triazol-4-yl]-N-[[(1R,2S)-2-fluorocyclopropyl]methyl]-2-[[(1S,2S)-2-methylcyclopropanecarbonyl]amino]-4,5,6,7-tetrahydro-1-benzothiophene-3-carboxamide], which IC50 is on record?
Answer: < 1 µM

Question: Which IC50 does the source give for `C[C@H]1C[C@@H]1C(=O)Nc1sc2c(c1C(=O)NC[C@H]1C[C@H](F)C1)C[C@@H](n1cnnc1Nc1cc(C(F)F)nn1C)CC2` [Example 437, (5S)-5-[3-[[5-(difluoromethyl)-2-methylpyrazol-3-yl]amino]-1,2,4-triazol-4-yl]-N-[trans-(3-fluorocyclobutyl)methyl]-2-[[(1S,2S)-2-methylcyclopropanecarbonyl]amino]-4,5,6,7-tetrahydro-1-benzothiophene-3-carboxamide] here?
Answer: < 1 µM

Question: For `C[C@H]1C[C@@H]1C(=O)Nc1sc2c(c1C(=O)N[C@H]1C[C@H](F)C1)C[C@@H](n1cnnc1Nc1cc(C(F)F)nn1C)CC2` [Example 438, (5S)-5-[3-[[5-(difluoromethyl)-2-methylpyrazol-3-yl]amino]-1,2,4-triazol-4-yl]-N-(trans-3-fluorocyclobutyl)-2-[[(1S,2S)-2-methylcyclopropanecarbonyl]amino]-4,5,6,7-tetrahydro-1-benzothiophene-3-carboxamide], which IC50 is on record?
Answer: < 1 µM

Question: Which IC50 does the source give for `C[C@H]1C[C@@H]1C(=O)Nc1sc2c(c1C(=O)NC1CC(F)(F)C1)C[C@@H](n1cnnc1Nc1cc(C(F)F)nn1C)CC2` [Example 439, (5S)—N-(3,3-difluorocyclobutyl)-5-[3-[[5-(difluoromethyl)-2-methylpyrazol-3-yl]amino]-1,2,4-triazol-4-yl]-2-[[(1S,2S)-2-methylcyclopropanecarbonyl]amino]-4,5,6,7-tetrahydro-1-benzothiophene-3-carboxamide] here?
Answer: < 1 µM

Question: How did the IC50 turn out when `C[C@H]1C[C@@H]1C(=O)Nc1sc2c(c1C(=O)NCC1CC(F)(F)C1)C[C@@H](n1cnnc1Nc1cc(C(F)F)nn1C)CC2` [Example 440, (5S)—N-[(3,3-difluorocyclobutyl)methyl]-5-[3-[[5-(difluoromethyl)-2-methylpyrazol-3-yl]amino]-1,2,4-triazol-4-yl]-2-[[(1S,2S)-2-methylcyclopropanecarbonyl]amino]-4,5,6,7-tetrahydro-1-benzothiophene-3-carboxamide] was run?
Answer: < 1 µM

Question: With `C[C@H]1C[C@@H]1C(=O)Nc1sc2c(c1C(=O)NCC1CC1(F)F)C[C@@H](n1cnnc1Nc1cc(C(F)F)nn1C)CC2` (stereo partly drawn) [Example 441, (5S)—N-[(2,2-difluorocyclopropyl)methyl]-5-[3-[[5-(difluoromethyl)-2-methylpyrazol-3-yl]amino]-1,2,4-triazol-4-yl]-2-[[(1S,2S)-2-methylcyclopropanecarbonyl]amino]-4,5,6,7-tetrahydro-1-benzothiophene-3-carboxamide] as the compound, how does the IC50 read?
Answer: < 1 µM

Question: With `C[C@H]1C[C@@H]1C(=O)Nc1sc2c(c1C(=O)NC[C@H]1C[C@@H](F)C1)C[C@@H](n1cnnc1Nc1cc(C(F)F)nn1C)CC2` [Example 442, (5S)-5-[3-[[5-(difluoromethyl)-2-methylpyrazol-3-yl]amino]-1,2,4-triazol-4-yl]-N-[cis-(3-fluorocyclobutyl)methyl]-2-[[(1S,2S)-2-methylcyclopropanecarbonyl]amino]-4,5,6,7-tetrahydro-1-benzothiophene-3-carboxamide] as the compound, how does the IC50 read?
Answer: < 1 µM

Question: Which IC50 does the source give for `C[C@H]1C[C@@H]1C(=O)Nc1sc2c(c1C(=O)NC[C@H]1C[C@H]1F)C[C@@H](n1cnnc1Nc1cc(C(F)F)nn1C)CC2` [Example 443, (5S)-5-[3-[[5-(difluoromethyl)-2-methylpyrazol-3-yl]amino]-1,2,4-triazol-4-yl]-N-[[(1R,2R)-2-fluorocyclopropyl]methyl]-2-[[(1S,2S)-2-methylcyclopropanecarbonyl]amino]-4,5,6,7-tetrahydro-1-benzothiophene-3-carboxamide] here?
Answer: < 1 µM

Question: With `Cn1nc(OC(F)F)cc1Nc1nncn1[C@H]1CCc2sc(NC(=O)C3CC3)c(C(=O)NCC3CC34CC4)c2C1` (stereo partly drawn) [Example 444, (5S)-2-(cyclopropanecarbonylamino)-5-[3-[[5-(difluoromethoxy)-2-methylpyrazol-3-yl]amino]-1,2,4-triazol-4-yl]-N-(spiro[2.2]pentan-2-ylmethyl)-4,5,6,7-tetrahydro-1-benzothiophene-3-carboxamide] as the compound, how does the IC50 read?
Answer: < 1 µM

Question: Which IC50 does the source give for `Cn1nc(OC(F)F)cc1Nc1nncn1[C@H]1CCc2sc(NC(=O)C3CC3)c(C(=O)NCC3CCC3)c2C1` [Example 445, (5S)—N-(cyclobutylmethyl)-2-(cyclopropanecarbonylamino)-5-[3-[[5-(difluoromethoxy)-2-methylpyrazol-3-yl]amino]-1,2,4-triazol-4-yl]-4,5,6,7-tetrahydro-1-benzothiophene-3-carboxamide] here?
Answer: < 1 µM

Question: With `Cn1nc(OC(F)F)cc1Nc1nncn1[C@H]1CCc2sc(NC(=O)C3CC3)c(C(=O)NCC3CC(F)(F)C3)c2C1` [Example 446, (5S)-2-(cyclopropanecarbonylamino)-N-[(3,3-difluorocyclobutyl)methyl]-5-[3-[[5-(difluoromethoxy)-2-methylpyrazol-3-yl]amino]-1,2,4-triazol-4-yl]-4,5,6,7-tetrahydro-1-benzothiophene-3-carboxamide] as the compound, how does the IC50 read?
Answer: < 1 µM
